{
  "source": "patent US20100125087A1",
  "about": "“NEW COMPOUNDS 575” (AstraZeneca AB, priority 2008, published 2010)",
  "note": "Counter-ions that a name gives are not always drawn.",
  "data": [
    {"molecular_target": "T1, human β-Secretase (Homo sapiens, UniProt P56817)", "T1 construct": "soluble part of the human β-Secretase (AA 1-AA 460); Fc domain of IgG1 (C); made in house", "T1 sequence (P56817 22-460)": "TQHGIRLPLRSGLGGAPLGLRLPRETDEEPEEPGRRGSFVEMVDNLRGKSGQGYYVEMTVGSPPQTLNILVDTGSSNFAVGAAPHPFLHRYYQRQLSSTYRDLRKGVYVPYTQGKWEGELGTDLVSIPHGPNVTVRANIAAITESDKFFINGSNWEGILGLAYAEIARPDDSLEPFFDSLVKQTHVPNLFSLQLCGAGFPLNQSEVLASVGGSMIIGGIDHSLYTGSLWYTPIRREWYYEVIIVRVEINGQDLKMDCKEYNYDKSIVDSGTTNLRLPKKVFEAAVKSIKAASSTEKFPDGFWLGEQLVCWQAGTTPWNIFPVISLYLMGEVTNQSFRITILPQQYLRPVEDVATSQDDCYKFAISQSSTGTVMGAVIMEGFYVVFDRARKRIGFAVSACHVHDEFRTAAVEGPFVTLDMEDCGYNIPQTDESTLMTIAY", "assay": "TR-FRET assay", "assay_type": "biochemical", "conditions": "sBACE-Fc, substrate (Europium)CEVNLDAEFK(Qsy7) 100 nM, pH4.5, unit not in table", "procedure": "The β-secretase enzyme used in the TR-FRET is prepared as follows:\nThe cDNA for the soluble part of the human β-Secretase (AA 1-AA 460) was cloned using the ASP2-Fc10-1-IRES-GFP-neoK mammalian expression vector. The gene was fused to the Fc domain of IgG1 (affinity tag) and stably cloned into HEK 293 cells.\nThe enzyme (truncated form) was diluted to 6 μg/mL (stock 1.3 mg/mL) and the substrate (Europium)CEVNLDAEFK(Qsy7) to 200 nM (stock 120 μM) in reaction buffer (NaAcetate, chaps, triton x-100, EDTA pH4.5). The robotic systems Biomek FX and Velocity 11 were used for all liquid handling and the enzyme and substrate solutions were kept on ice until they were placed in the robotic system. Enzyme (9 μl) was added to the plate then 1 μl of compound in dimethylsulphoxide was added, mixed and pre-incubated for 10 minutes. Substrate (10 μl) was then added, mixed and the reaction proceeded for 15 minutes at room temperature. The reaction was stopped with the addition of Stop solution (7 μl, NaAcetate, pH 9). The fluorescence of the product was measured on a Victor II plate reader with an excitation wavelength of 340 nm and an emission wavelength of 615 nm. The assay was performed in a Costar 384 well round bottom, low volume, non-binding surface plate (Corning #3676). […] The dimethylsulphoxide control, instead of test compound, defined the 100% activity level and 0% activity was defined by wells lacking enzyme (replaced with reaction buffer).", "units": {"IC50": "nM"}, "values": [
      {"smiles": "CC(C)COc1cccc(C2(c3ccncc3)N=C(N)c3ncccc32)c1", "note": "(stereo not drawn) [Example 1, 5-(3-Isobutoxyphenyl)-5-(pyridin-4-yl)-5H-pyrrolo[3,4-b]pyridin-7-amine]", "IC50": 640},
      {"smiles": "CC(C)CCOc1cccc(C2(c3ccncc3)N=C(N)c3ncccc32)c1", "note": "(stereo not drawn) [Example 2, 5-(3-(Isopentyloxy)phenyl)-5-(pyridin-4-yl)-5H-pyrrolo[3,4-b]pyridin-7-amine]", "IC50": 1700},
      {"smiles": "NC1=NC(c2ccncc2)(c2cccc(OCC3CCCC3)c2)c2cccnc21", "note": "(stereo not drawn) [Example 3, 5-(3-(Cyclopentylmethoxy)phenyl)-5-(pyridin-4-yl)-5H-pyrrolo[3,4-b]pyridin-7-amine]", "IC50": 1500},
      {"smiles": "NC1=NC(c2ccncc2)(c2cccc(OCC3CCC3)c2)c2cccnc21", "note": "(stereo not drawn) [Example 4, 5-(3-(Cyclobutylmethoxy)phenyl)-5-(pyridin-4-yl)-5H-pyrrolo[3,4-b]pyridin-7-amine]", "IC50": 2700},
      {"smiles": "NC1=NC(c2ccncc2)(c2cccc(OCC3CC3(F)F)c2)c2cccnc21", "note": "(stereo not drawn) [Example 5, 5-(3-((2,2-Difluorocyclopropyl)methoxy)phenyl)-5-(pyridin-4-yl)-5H-pyrrolo[3,4-b]pyridin-7-amine]", "IC50": 2300},
      {"smiles": "NC1=NC(c2cccc(OCCCF)c2)(c2ccnc(C(F)(F)F)c2)c2cccnc21", "note": "(stereo not drawn) [Example 6, 5-(3-(3-Fluoropropoxy)phenyl)-5-(2-(trifluoromethyl)pyridin-4-yl)-5H-pyrrolo[3,4-b]pyridin-7-amine]", "IC50": 1500},
      {"smiles": "NC1=NC(c2cccc(OCC3CCC3)c2)(c2ccnc(C(F)(F)F)c2)c2cccnc21", "note": "(stereo not drawn) [Example 7, 5-(3-(Cyclobutylmethoxy)phenyl)-5-(2-(trifluoromethyl)pyridin-4-yl)-5H-pyrrolo[3,4-b]pyridin-7-amine]", "IC50": 1200},
      {"smiles": "NC1=NC(c2ccncc2)(c2cccc(OC3CCCC3)c2)c2cccnc21", "note": "(stereo not drawn) [Example 8, 5-(3-(Cyclopentyloxy)phenyl)-5-(pyridin-4-yl)-5H-pyrrolo[3,4-b]pyridin-7-amine]", "IC50": 3000},
      {"smiles": "NC1=NC(c2ccncc2)(c2cccc(OC3CCC3)c2)c2cccnc21", "note": "(stereo not drawn) [Example 9, 5-(3-Cyclobutoxyphenyl)-5-(pyridin-4-yl)-5H-pyrrolo[3,4-b]pyridin-7-amine]", "IC50": 8000},
      {"smiles": "COc1cccc(C2(c3ccncc3)N=C(N)c3ncccc32)c1", "note": "(stereo not drawn) [Example 9i, 5-(3-Methoxyphenyl)-5-(pyridin-4-yl)-5H-pyrrolo[3,4-b]pyridin-7-amine]", "IC50": 26000},
      {"smiles": "NC1=NC(c2ccncc2)(c2cccc(OCCCF)c2)c2cccnc21", "note": "(stereo not drawn) [Example 10, 5-(3-(3-Fluoropropoxy)phenyl)-5-(pyridin-4-yl)-5H-pyrrolo[3,4-b]pyridin-7-amine]", "IC50": 2400},
      {"smiles": "COc1c(C)cc(C2(c3cccc(OCCCF)c3)N=C(N)c3ncccc32)cc1C", "note": "(stereo not drawn) [Example 11, 5-(3-(3-Fluoropropoxy)phenyl)-5-(4-methoxy-3,5-dimethylphenyl)-5H-pyrrolo[3,4-b]pyridin-7-amine]", "IC50": 81},
      {"smiles": "COc1cc(C2(c3cccc(OCCCF)c3)N=C(N)c3ncccc32)ccn1", "note": "(stereo not drawn) [Example 12, 5-(3-(3-Fluoropropoxy)phenyl)-5-(2-methoxypyridin-4-yl)-5H-pyrrolo[3,4-b]pyridin-7-amine]", "IC50": 2700},
      {"smiles": "Cc1cc(C2(c3cccc(OCCCF)c3)N=C(N)c3ncccc32)ccn1", "note": "(stereo not drawn) [Example 13, 5-(3-(3-Fluoropropoxy)phenyl)-5-(2-methylpyridin-4-yl)-5H-pyrrolo[3,4-b]pyridin-7-amine]", "IC50": 2700},
      {"smiles": "COc1ccc(C2(c3cccc(OCCCF)c3)N=C(N)c3ncccc32)cc1C(F)(F)F", "note": "(stereo not drawn) [Example 14, 5-(3-(3-Fluoropropoxy)phenyl)-5-(4-methoxy-3-(trifluoromethyl)phenyl)-5H-pyrrolo[3,4-b]pyridin-7-amine]", "IC50": 960},
      {"smiles": "Cc1cc(C2(c3cccc(OCC(C)C)c3)N=C(N)c3ncccc32)cc(C)n1", "note": "(stereo not drawn) [Example 15, 5-(2,6-Dimethylpyridin-4-yl)-5-(3-isobutoxyphenyl)-5H-pyrrolo[3,4-b]pyridin-7-amine acetate]", "IC50": 3800},
      {"smiles": "COc1ncc(C2(c3cccc(OCC(C)C)c3)N=C(N)c3ncccc32)cc1C", "note": "(stereo not drawn) [Example 16, 5-(3-Isobutoxyphenyl)-5-(6-methoxy-5-methylpyridin-3-yl)-5H-pyrrolo[3,4-b]pyridin-7-amine acetate]", "IC50": 3100},
      {"smiles": "CC(C)COc1cccc(C2(c3ccc(OC(F)F)nc3)N=C(N)c3ncccc32)c1", "note": "(stereo not drawn) [Example 17, acetate]", "IC50": 1300},
      {"smiles": "CC(C)COc1cccc(C2(c3ccc(OC(F)F)cc3)N=C(N)c3ncccc32)c1", "note": "(stereo not drawn) [Example 18, 5-(4-(Difluoromethoxy)phenyl)-5-(3-isobutoxyphenyl)-5H-pyrrolo[3,4-b]pyridin-7-amine]", "IC50": 150},
      {"smiles": "Cc1cc(C2(c3cccc(OCCCF)c3)N=C(N)c3ncccc32)cc(OC(F)F)n1", "note": "(stereo not drawn) [Example 19, 5-(2-(Difluoromethoxy)-6-methylpyridin-4-yl)-5-(3-(3-fluoropropoxy)phenyl)-5H-pyrrolo[3,4-b]pyridin-7-amine]", "IC50": 909},
      {"smiles": "COc1ccc(C2(c3cccc(OCCCF)c3)N=C(N)c3ncccc32)cc1Cl", "note": "(stereo not drawn) [Example 20, 5-(3-Chloro-4-methoxyphenyl)-5-(3-(3-fluoropropoxy)phenyl)-5H-pyrrolo[3,4-b]pyridin-7-amine]", "IC50": 779},
      {"smiles": "NC1=NC(c2cccc(OCCC(F)F)c2)(c2ccnc(C(F)(F)F)c2)c2cccnc21", "note": "(stereo not drawn) [Example 21, 5-(3-(3,3-Difluoropropoxy)phenyl)-5-(2-(trifluoromethyl)pyridin-4-yl)-5H-pyrrolo[3,4-b]pyridin-7-amine trifluoroacetic acid salt]", "IC50": 1150},
      {"smiles": "COc1c(C)cc(C2(c3cccc(OCCC(F)F)c3)N=C(N)c3ncccc32)nc1C", "note": "(stereo not drawn) [Example 22, 5-(3-(3,3-Difluoropropoxy)phenyl)-5-(5-methoxy-4,6-dimethylpyridin-2-yl)-5H-pyrrolo[3,4-b]pyridin-7-amine acetic acid salt]", "IC50": 337},
      {"smiles": "NC1=NC(c2cccc(OCCCF)c2)(c2ccnc(OC(F)F)c2)c2cccnc21", "note": "(stereo not drawn) [Example 23, 5-(2-(Difluoromethoxy)pyridin-4-yl)-5-(3-(3-fluoropropoxy)phenyl)-5H-pyrrolo[3,4-b]pyridin-7-amine 1.67 acetic acid]", "IC50": 2620}
    ]}
  ]
}
